Assay results published in ChEMBL document CHEMBL4014304, “New potent and selective αvβ3 integrin ligands: Macrocyclic peptides containing RGD motif synthesized by sortase A-mediated ligation” (Bioorg Med Chem Lett, 2017).
Numbered stars: 1 amine (or outer) side, 2 acyl side, 3 side chain; on linkers, the order of the positions; unused ones are H or OH. Square brackets hold non-standard residues; d marks the D form. Peptide text beside a SMILES is read from it. X1 = C[C@@H](O)[C@H](N[*:1])C(=O)NC(=O)[*:2]

Key:
Format in all cases: cell-based
[1] = target: Integrin alpha-V/beta-5 (Homo sapiens, UniProt P06756+P18084); assay: Antagonist activity at integrin alphaVbeta5 (unknown origin) expressed in HT-29 cells assessed as reduction in cell adhesion to vitronectin after 2 hrs by MTT assay
[2] = target: Integrin alpha-V/beta-3/alpha-V/beta-5 (Homo sapiens, UniProt P05106+P06756+P18084); assay: Antagonist activity at integrin alphaVbeta3alphaVbeta5 (unknown origin) expressed in SKOV3 cells assessed as reduction in cell adhesion to fibrinogen after 2 hrs by MTT assay
[3] = target: Integrin alpha-V/beta-3 (Homo sapiens, UniProt P05106+P06756); assay: Antagonist activity at integrin alphaVbeta3 (unknown origin) expressed in HEK293 cells assessed as reduction in cell adhesion to fibrinogen after 2 hrs by MTT assay
[4] = species on record: Homo sapiens; assay: Selectivity ratio of IC50 for integrin alphaVbeta5 (unknown origin) expressed in HT-29 cells to IC50 for integrin alphaVbeta3 (unknown origin) expressed in HEK293 cells
[5] = species on record: Homo sapiens; assay: Selectivity ratio of IC50 for integrin alphaVbeta5 (unknown origin) expressed in HT-29 cells to IC50 for integrin alphaVbeta3alphaVbeta5 (unknown origin) expressed in SKOV3 cells

Sequence of Integrin alpha-V/beta-3 (P05106 27-788 limits assumed): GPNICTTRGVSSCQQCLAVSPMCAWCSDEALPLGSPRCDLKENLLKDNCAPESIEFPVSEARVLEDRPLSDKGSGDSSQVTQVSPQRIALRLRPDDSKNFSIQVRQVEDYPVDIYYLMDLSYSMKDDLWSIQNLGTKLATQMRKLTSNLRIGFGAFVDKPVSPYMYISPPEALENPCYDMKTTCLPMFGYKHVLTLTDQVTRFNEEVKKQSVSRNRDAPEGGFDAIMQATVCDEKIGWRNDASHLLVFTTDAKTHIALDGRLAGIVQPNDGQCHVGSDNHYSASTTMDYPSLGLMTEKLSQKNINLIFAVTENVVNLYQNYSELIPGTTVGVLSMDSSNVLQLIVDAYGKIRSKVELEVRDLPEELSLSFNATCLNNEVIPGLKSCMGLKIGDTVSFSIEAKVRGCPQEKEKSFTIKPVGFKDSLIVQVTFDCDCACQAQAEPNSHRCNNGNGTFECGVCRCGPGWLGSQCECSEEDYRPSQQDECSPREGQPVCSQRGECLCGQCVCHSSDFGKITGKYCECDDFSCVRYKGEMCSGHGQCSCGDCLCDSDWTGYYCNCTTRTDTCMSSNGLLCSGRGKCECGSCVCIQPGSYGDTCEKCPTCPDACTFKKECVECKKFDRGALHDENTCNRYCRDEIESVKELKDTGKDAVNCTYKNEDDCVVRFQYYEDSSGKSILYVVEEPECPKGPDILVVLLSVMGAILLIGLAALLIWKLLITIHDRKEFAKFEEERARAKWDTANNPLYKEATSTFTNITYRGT
Sequence of Integrin alpha-V/beta-3 (P06756 31-889 limits assumed): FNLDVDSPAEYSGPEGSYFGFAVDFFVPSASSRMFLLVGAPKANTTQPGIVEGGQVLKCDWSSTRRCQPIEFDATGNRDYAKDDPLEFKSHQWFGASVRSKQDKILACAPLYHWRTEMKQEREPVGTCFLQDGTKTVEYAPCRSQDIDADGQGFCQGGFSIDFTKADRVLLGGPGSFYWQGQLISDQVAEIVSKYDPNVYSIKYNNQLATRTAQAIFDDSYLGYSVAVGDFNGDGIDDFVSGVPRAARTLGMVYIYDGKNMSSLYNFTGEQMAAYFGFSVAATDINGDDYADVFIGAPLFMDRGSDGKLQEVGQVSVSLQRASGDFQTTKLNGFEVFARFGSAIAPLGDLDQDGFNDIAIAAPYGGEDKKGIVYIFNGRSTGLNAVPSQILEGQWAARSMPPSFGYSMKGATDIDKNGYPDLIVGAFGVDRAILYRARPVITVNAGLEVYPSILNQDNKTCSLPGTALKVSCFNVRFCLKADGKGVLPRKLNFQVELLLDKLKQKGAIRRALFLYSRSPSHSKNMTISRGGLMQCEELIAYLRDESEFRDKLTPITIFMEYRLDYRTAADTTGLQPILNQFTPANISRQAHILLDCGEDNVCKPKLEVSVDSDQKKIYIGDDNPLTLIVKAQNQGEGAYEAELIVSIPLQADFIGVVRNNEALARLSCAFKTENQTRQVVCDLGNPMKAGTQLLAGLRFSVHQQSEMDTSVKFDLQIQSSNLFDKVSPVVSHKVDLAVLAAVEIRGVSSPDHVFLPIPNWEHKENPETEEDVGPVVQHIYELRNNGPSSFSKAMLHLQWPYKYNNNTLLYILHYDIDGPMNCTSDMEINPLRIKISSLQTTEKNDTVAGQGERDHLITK
Sequence of Integrin alpha-V/beta-3 (P06756 891-1048 limits assumed): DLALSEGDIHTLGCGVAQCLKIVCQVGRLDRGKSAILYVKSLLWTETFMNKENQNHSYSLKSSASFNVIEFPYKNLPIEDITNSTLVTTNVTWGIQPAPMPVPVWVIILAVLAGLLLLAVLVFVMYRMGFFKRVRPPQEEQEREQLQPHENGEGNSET
Sequence of Integrin alpha-V/beta-3/alpha-V/beta-5 (P05106 27-788 limits assumed): as the sequence (P05106 27-788 limits assumed) above
Sequence of Integrin alpha-V/beta-3/alpha-V/beta-5 (P06756 31-889 limits assumed): as the sequence (P06756 31-889 limits assumed) above
Sequence of Integrin alpha-V/beta-3/alpha-V/beta-5 (P06756 891-1048 limits assumed): as the sequence (P06756 891-1048 limits assumed) above
Sequence of Integrin alpha-V/beta-3/alpha-V/beta-5 (P18084 24-799 limits assumed): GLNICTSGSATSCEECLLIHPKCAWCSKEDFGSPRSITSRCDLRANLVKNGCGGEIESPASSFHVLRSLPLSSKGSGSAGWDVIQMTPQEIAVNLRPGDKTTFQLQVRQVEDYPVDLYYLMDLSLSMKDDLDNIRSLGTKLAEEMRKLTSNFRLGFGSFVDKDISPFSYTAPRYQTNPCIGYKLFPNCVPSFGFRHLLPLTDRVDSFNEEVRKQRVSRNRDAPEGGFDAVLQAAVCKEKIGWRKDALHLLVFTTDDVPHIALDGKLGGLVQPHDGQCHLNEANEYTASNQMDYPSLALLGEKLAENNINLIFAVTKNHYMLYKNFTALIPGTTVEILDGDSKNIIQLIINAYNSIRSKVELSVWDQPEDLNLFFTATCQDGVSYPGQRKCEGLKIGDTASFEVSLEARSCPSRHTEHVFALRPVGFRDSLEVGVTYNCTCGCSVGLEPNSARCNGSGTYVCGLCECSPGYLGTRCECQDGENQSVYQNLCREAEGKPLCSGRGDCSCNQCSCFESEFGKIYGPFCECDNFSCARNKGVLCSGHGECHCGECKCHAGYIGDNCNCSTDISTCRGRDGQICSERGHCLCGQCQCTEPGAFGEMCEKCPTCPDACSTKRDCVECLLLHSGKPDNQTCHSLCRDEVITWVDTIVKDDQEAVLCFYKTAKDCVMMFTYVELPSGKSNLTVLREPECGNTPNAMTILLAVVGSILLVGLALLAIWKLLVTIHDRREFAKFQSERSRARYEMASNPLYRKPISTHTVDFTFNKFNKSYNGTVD
Sequence of Integrin alpha-V/beta-5 (P06756 31-889 limits assumed): as the sequence (P06756 31-889 limits assumed) above
Sequence of Integrin alpha-V/beta-5 (P06756 891-1048 limits assumed): as the sequence (P06756 891-1048 limits assumed) above
Sequence of Integrin alpha-V/beta-5 (P18084 24-799 limits assumed): as the sequence (P18084 24-799 limits assumed) above

Molecule | IC50 [1] | IC50 [2] | IC50 [3] | Ratio IC50 [4] | Ratio IC50 [5]
CC(C)C[C@@H]1NC(=O)[C@H](CC(=O)O)NC(=O)CNC(=O)[C@H](CCCNC(=N)N)NC(=O)[C@H](CC(=O)O)NC(=O)CNC(=O)[C@H](CCCNC(=N)N)NC(=O)CNC(=O)CNC(=O)CNC(=O)CNC(=O)[C@H]([C@@H](C)O)NC(=O)[C@H](CCC(=O)O)NC(=O)[C@@H]2CCCN2C1=O (cyclo(RGDLPETGGGGRGD)) | 26 µM | 26 µM | 48.8 µM | – | –
CC(C)C[C@@H]1NC(=O)[C@H](CC(=O)O)NC(=O)CNC(=O)[C@H](CCCNC(=N)N)NC(=O)[C@H](CC(=O)O)NC(=O)CNC(=O)[C@H](CCCNC(=N)N)NC(=O)[C@H](CC(=O)O)NC(=O)CNC(=O)[C@H](CCCNC(=N)N)NC(=O)CNC(=O)[C@H]([C@@H](C)O)NC(=O)[C@H](CCC(=O)O)NC(=O)[C@@H]2CCCN2C1=O (cyclo(RGDLPETGRGDRGD)) | 380 µM | 136 µM | 257 µM | – | –
H-RGDRGD-OH | 546 µM | 753 µM | 619 µM | – | –
H-GGGGRGDRGDLPETGGS-OH | 1730 µM | 4 µM | 33 µM | > 50 | > 400
H-GRGDRGDRGDLPETGGS-OH | 25 µM | 74 µM | 152 µM | – | –
CC(C)C[C@@H]1NC(=O)[C@H](CC(=O)O)NC(=O)CNC(=O)[C@H](CCCNC(=N)N)NC(=O)CNC(=O)CNC(=O)CNC(=O)CNC(=O)CNC(=O)CNC(=O)CNC(=O)NC(=O)[C@H]([C@@H](C)O)NC(=O)[C@H](CCC(=O)O)NC(=O)[C@@H]2CCCN2C1=O (cyclo(RGDLPE[X1]GGGGGGG)) | 522 µM | 19 µM | 7.2 µM | – | –
H-GGGGGGGRGDLPETGGS-OH | 2950 µM | 102 µM | 171 µM | – | –
